Experimental data as given in patent publication US20110144079A1, “ANTIMICROBIAL SYSTEM” (priority 2008, published 2011).

system: B. cenocepacia J2315; assay: Broth microdilution MIC/MBC; type: cell-based; settings: B. cenocepacia J2315, 99.9% killing
Protocol: (§1) Broth microdilution tests were performed according to NCCLS guidelines. Serial two-fold dilutions of each imidazolium salt (from an original working solution which had been 0.22 μm sterile filtered) in Mueller-Hinton Broth (MHB) (100 μl) were prepared in 96-well micro-titre plates over the range 0.0000625-1% w/v. The inoculum to be tested was prepared by adjusting the turbidity of an actively overnight growing broth culture in MHB to an optical density at 550 nm equivalent to 1×10^8 CFU/ml. The suspension was further diluted to provide a final inoculum density of 2×10^5 CFU/ml in MHB as verified by total viable count. The inoculum to be tested (100 μl, 2×10^5 CFU ml^−1) was added to each well of the microdilution trays which were incubated aerobically for 24 h at 37° C. Positive and negative growth controls were included in every assay (6 replicates). After determining the MICs, minimum bactericidal concentrations (MBCs) were determined by spreading 20 μl of suspension from wells showing no growth onto MHA plates, which were then incubated for 24 h and examined for 99.9% killing.

| SMILES | MBC [µM] |
| --- | --- |
| CCCCCCn1cc[n+](C)c1.[Cl-] [1-alkyl-3-methylimidazolium chlorides 6] | >1644 |

same assay, conditions: B. cenocepacia J2315, 24 h at 37° C.

| SMILES | MIC [µM] |
| --- | --- |
| CCCCCCn1cc[n+](C)c1.[Cl-] [1-alkyl-3-methylimidazolium chlorides 6] | >1644 |

system: B. cereus; assay: Broth microdilution MIC/MBC; type: cell-based; settings: 24 h at 37° C.
Protocol: as §1

| SMILES | MIC [µM] |
| --- | --- |
| CCCCCCCC[n+]1ccn(C)c1.[Br][Ag-][Br] [1-alkyl-3-methylimidazolium-AgBr2 8] | 168.5 |
| CCCCCCCCCCCCCCCCCCn1cc[n+](C)c1.CCCCCCCCCCCCCCCCCCn1cc[n+](C)c1.[Cl][Cu-2]([Cl])([Cl])[Cl] [(1-alkyl-3-methylimidazolium)2CuCl4 18] | 169.15 |
| CCCCCCCCCCCCCCCCCC[n+]1ccn(C)c1.[Br][Ag-][Br] [1-alkyl-3-methylimidazolium-AgBr2 18] | 65.87 |

system: C. tropicalis NCTC 7393; assay: Broth microdilution MIC/MBC; type: cell-based; settings: C. tropicalis NCTC 7393, 99.9% killing
Protocol: as §1

| SMILES | MBC [µM] |
| --- | --- |
| CCCCCCn1cc[n+](C)c1.[Cl-] [1-alkyl-3-methylimidazolium chlorides 6] | >1644 |

same assay, conditions: C. tropicalis NCTC 7393, 24 h at 37° C.

| SMILES | MIC [µM] |
| --- | --- |
| CCCCCCn1cc[n+](C)c1.[Cl-] [1-alkyl-3-methylimidazolium chlorides 6] | >1644 |
| CCCCCCCC[n+]1ccn(C)c1.[Br][Ag-][Br] [1-alkyl-3-methylimidazolium-AgBr2 8] | 168.5 |
| CCCCCCCCCCCCCCCCCCn1cc[n+](C)c1.CCCCCCCCCCCCCCCCCCn1cc[n+](C)c1.[Cl][Cu-2]([Cl])([Cl])[Cl] [(1-alkyl-3-methylimidazolium)2CuCl4 18] | 84.57 |
| CCCCCCCCCCCCCCCCCC[n+]1ccn(C)c1.[Br][Ag-][Br] [1-alkyl-3-methylimidazolium-AgBr2 18] | 65.87 |

system: E-MRSA 15; assay: Broth microdilution MIC/MBC; type: cell-based; settings: E-MRSA 15, 99.9% killing
Protocol: as §1

| SMILES | MBC [µM] |
| --- | --- |
| CCCCCCn1cc[n+](C)c1.[Cl-] [1-alkyl-3-methylimidazolium chlorides 6] | >1644 |

same assay, conditions: E-MRSA 15, 24 h at 37° C.

| SMILES | MIC [µM] |
| --- | --- |
| CCCCCCn1cc[n+](C)c1.[Cl-] [1-alkyl-3-methylimidazolium chlorides 6] | >1644 |

system: E. coli NCTC 8196; assay: Broth microdilution MIC/MBC; type: cell-based; settings: E. coli NCTC 8196, 99.9% killing
Protocol: as §1

| SMILES | MBC [µM] |
| --- | --- |
| CCCCCCn1cc[n+](C)c1.[Cl-] [1-alkyl-3-methylimidazolium chlorides 6] | >1644 |

same assay, conditions: E. coli NCTC 8196, 24 h at 37° C.

| SMILES | MIC [µM] |
| --- | --- |
| CCCCCCn1cc[n+](C)c1.[Cl-] [1-alkyl-3-methylimidazolium chlorides 6] | >1644 |
| CCCCCCCC[n+]1ccn(C)c1.[Br][Ag-][Br] [1-alkyl-3-methylimidazolium-AgBr2 8] | 136.69 |
| CCCCCCCCCCCCCCCCCCn1cc[n+](C)c1.CCCCCCCCCCCCCCCCCCn1cc[n+](C)c1.[Cl][Cu-2]([Cl])([Cl])[Cl] [(1-alkyl-3-methylimidazolium)2CuCl4 18] | 131.98 |
| CCCCCCCCCCCCCCCCCC[n+]1ccn(C)c1.[Br][Ag-][Br] [1-alkyl-3-methylimidazolium-AgBr2 18] | 27.83 |

system: K. aerogenes NCTC 7427; assay: Broth microdilution MIC/MBC; type: cell-based; settings: K. aerogenes NCTC 7427, 99.9% killing
Protocol: as §1

| SMILES | MBC [µM] |
| --- | --- |
| CCCCCCn1cc[n+](C)c1.[Cl-] [1-alkyl-3-methylimidazolium chlorides 6] | >1644 |

same assay, conditions: K. aerogenes NCTC 7427, 24 h at 37° C.

| SMILES | MIC [µM] |
| --- | --- |
| CCCCCCn1cc[n+](C)c1.[Cl-] [1-alkyl-3-methylimidazolium chlorides 6] | >1644 |
| CCCCCCCC[n+]1ccn(C)c1.[Br][Ag-][Br] [1-alkyl-3-methylimidazolium-AgBr2 8] | 168.5 |
| CCCCCCCCCCCCCCCCCCn1cc[n+](C)c1.CCCCCCCCCCCCCCCCCCn1cc[n+](C)c1.[Cl][Cu-2]([Cl])([Cl])[Cl] [(1-alkyl-3-methylimidazolium)2CuCl4 18] | 338.29 |
| CCCCCCCCCCCCCCCCCC[n+]1ccn(C)c1.[Br][Ag-][Br] [1-alkyl-3-methylimidazolium-AgBr2 18] | 65.87 |

system: P. aeruginosa PA01; assay: Broth microdilution MIC/MBC; type: cell-based; settings: P. aeruginosa PA01, 99.9% killing
Protocol: as §1

| SMILES | MBC [µM] |
| --- | --- |
| CCCCCCn1cc[n+](C)c1.[Cl-] [1-alkyl-3-methylimidazolium chlorides 6] | >1644 |

same assay, conditions: P. aeruginosa PA01, 24 h at 37° C.; read-out: MIC

| SMILES | MIC [µM] |
| --- | --- |
| CCCCCCn1cc[n+](C)c1.[Cl-] [1-alkyl-3-methylimidazolium chlorides 6] | >1644 |

system: P. mirabilis NCTC 12442; assay: Broth microdilution MIC/MBC; type: cell-based; settings: P. mirabilis NCTC 12442, 99.9% killing
Protocol: as §1

| SMILES | MBC [µM] |
| --- | --- |
| CCCCCCn1cc[n+](C)c1.[Cl-] [1-alkyl-3-methylimidazolium chlorides 6] | >1644 |

same assay, conditions: P. mirabilis NCTC 12442, 24 h at 37° C.

| SMILES | MIC [µM] |
| --- | --- |
| CCCCCCn1cc[n+](C)c1.[Cl-] [1-alkyl-3-methylimidazolium chlorides 6] | >1644 |
| CCCCCCCC[n+]1ccn(C)c1.[Br][Ag-][Br] [1-alkyl-3-methylimidazolium-AgBr2 8] | 168.5 |
| CCCCCCCCCCCCCCCCCCn1cc[n+](C)c1.CCCCCCCCCCCCCCCCCCn1cc[n+](C)c1.[Cl][Cu-2]([Cl])([Cl])[Cl] [(1-alkyl-3-methylimidazolium)2CuCl4 18] | 338.29 |
| CCCCCCCCCCCCCCCCCC[n+]1ccn(C)c1.[Br][Ag-][Br] [1-alkyl-3-methylimidazolium-AgBr2 18] | 65.87 |

system: S. aureus ATCC 29213; assay: Broth microdilution MIC/MBC; type: cell-based; settings: S. aureus ATCC 29213, 99.9% killing
Protocol: as §1

| SMILES | MBC [µM] |
| --- | --- |
| CCCCCCn1cc[n+](C)c1.[Cl-] [1-alkyl-3-methylimidazolium chlorides 6] | >1644 |

same assay, conditions: S. aureus ATCC 29213, 24 h at 37° C.

| SMILES | MIC [µM] |
| --- | --- |
| CCCCCCn1cc[n+](C)c1.[Cl-] [1-alkyl-3-methylimidazolium chlorides 6] | >1644 |
| CCCCCCCC[n+]1ccn(C)c1.[Br][Ag-][Br] [1-alkyl-3-methylimidazolium-AgBr2 8] | 136.69 |
| CCCCCCCCCCCCCCCCCCn1cc[n+](C)c1.CCCCCCCCCCCCCCCCCCn1cc[n+](C)c1.[Cl][Cu-2]([Cl])([Cl])[Cl] [(1-alkyl-3-methylimidazolium)2CuCl4 18] | 131.98 |
| CCCCCCCCCCCCCCCCCC[n+]1ccn(C)c1.[Br][Ag-][Br] [1-alkyl-3-methylimidazolium-AgBr2 18] | 27.83 |

system: S. epidermidis ATCC 12228; assay: Broth microdilution MIC/MBC; type: cell-based; settings: S. epidermidis ATCC 12228, 99.9% killing
Protocol: as §1

| SMILES | MBC [µM] |
| --- | --- |
| CCCCCCn1cc[n+](C)c1.[Cl-] [1-alkyl-3-methylimidazolium chlorides 6] | >1644 |

same assay, conditions: S. epidermidis ATCC 12228, 24 h at 37° C.

| SMILES | MIC [µM] |
| --- | --- |
| CCCCCCn1cc[n+](C)c1.[Cl-] [1-alkyl-3-methylimidazolium chlorides 6] | >1644 |
| CCCCCCCC[n+]1ccn(C)c1.[Br][Ag-][Br] [1-alkyl-3-methylimidazolium-AgBr2 8] | 68.35 |
| CCCCCCCCCCCCCCCCCCn1cc[n+](C)c1.CCCCCCCCCCCCCCCCCCn1cc[n+](C)c1.[Cl][Cu-2]([Cl])([Cl])[Cl] [(1-alkyl-3-methylimidazolium)2CuCl4 18] | 131.98 |
| CCCCCCCCCCCCCCCCCC[n+]1ccn(C)c1.[Br][Ag-][Br] [1-alkyl-3-methylimidazolium-AgBr2 18] | 13.91 |

system: S. epidermidis ATCC 35984; assay: Broth microdilution MIC/MBC; type: cell-based; settings: S. epidermidis ATCC 35984, 99.9% killing
Protocol: as §1

| SMILES | MBC [µM] |
| --- | --- |
| CCCCCCn1cc[n+](C)c1.[Cl-] [1-alkyl-3-methylimidazolium chlorides 6] | >1644 |

same assay, conditions: S. epidermidis ATCC 35984, 24 h at 37° C.

| SMILES | MIC [µM] |
| --- | --- |
| CCCCCCn1cc[n+](C)c1.[Cl-] [1-alkyl-3-methylimidazolium chlorides 6] | >1644 |
| CCCCCCCC[n+]1ccn(C)c1.[Br][Ag-][Br] [1-alkyl-3-methylimidazolium-AgBr2 8] | 68.35 |
| CCCCCCCCCCCCCCCCCCn1cc[n+](C)c1.CCCCCCCCCCCCCCCCCCn1cc[n+](C)c1.[Cl][Cu-2]([Cl])([Cl])[Cl] [(1-alkyl-3-methylimidazolium)2CuCl4 18] | 131.98 |
| CCCCCCCCCCCCCCCCCC[n+]1ccn(C)c1.[Br][Ag-][Br] [1-alkyl-3-methylimidazolium-AgBr2 18] | 13.91 |

system: MRSA; assay: Broth microdilution MIC/MBC; type: cell-based, methicillin-resistant S. aureus; settings: 99.9% killing
Protocol: as §1

| SMILES | MBC [µM] |
| --- | --- |
| CCCCCCn1cc[n+](C)c1.[Cl-] [1-alkyl-3-methylimidazolium chlorides 6] | >1644 |

same assay, conditions: 24 h at 37° C.

| SMILES | MIC [µM] |
| --- | --- |
| CCCCCCn1cc[n+](C)c1.[Cl-] [1-alkyl-3-methylimidazolium chlorides 6] | >1644 |
